According to patent US10710978B2, “STK4 inhibitors for treatment of hematologic malignancies” (Dana-Farber Cancer Institute, Inc., priority 2015, dated 2020):
pIC50: −log10 of the molar value.

Tests used:
[1] = biological target: MST4 (Homo sapiens (Human), UniProt Q9P289); test: Z-lyte biochemical IC50 assay (Invitrogen); conditions: ATP concentration matched the Km
[2] = biological target: BMPR1B (Homo sapiens (Human), UniProt O00238); test: Ambit KINOSCAN assay; format: binding; conditions: read-out: percent control (%) at 1 uM
Description: (§1) Kinase Selectivity Studies
(§2) To directly test the kinase selectivity of a compound of the present application over other human protein kinases, the compounds were tested in an Ambit KINOSCAN assay. Ambit KINOSCAN assay is an ATP site dependent competition assay. T7 kinase-tagged phage strains were grown in parallel in 24- or 96-well blocks in an E. coli host derived from the BL21 strain. E. Coli were grown to log phase and infected with T7 phage from a frozen stock and incubated with shaking at about 32° C. until lysis (˜90 min). The lysates were centrifuged (6,000 g) and filtered ([…]) to remove cell debris. […] The liganded beads were blocked with excess biotin and washed with blocking buffer (Seablock (Pierce), 1% BSA, 0.05% Tween 20, 1 mM DTT) to remove unbound ligand and to reduce non-specific phage binding. Binding reactions were assembled by combining phage lysates, liganded affinity beads, and test compounds (i.e., compounds of the present application) in 1× binding buffer (20% SeaBlock, 0.17×PBS, 0.05% Tween […]). Test compounds were prepared 1000× stocks in DMSO and rapidly diluted into the aqueous environment (0.1% DMSO final). DMSO (0.1%) was used as a control. All reactions were carried out in polystyrene 96-well plates that had been pre-treated with blocking buffer in a final volume of 0.1 ml. […] The phage titer in the eluates was measured by standard plaque assays or quantitative PCR. Binding data were fit to the equation […]), where L is the lower baseline, H is the upper baseline, Kd(test) is the biding constant for the interaction between the test compound and the kinase, and [test] is the free test compound concentration. Binding constants are measured in duplicate on the same day of testing. For more details on the Ambit KINOSCAN assay see Fabian, M. A., et al. “A Small Molecule-Kinase Interaction Map for Clinical Kinase Inhibitors” Nat. Biotechol. 23(3), 2005, 329-336. (Also see Davis, M. I., et al. “Comprehensive analysis of kinase inhibitor selectivity.” Nat. Biotechnol. 29(11), 2011, 1046-1051)

[3] = biological target: CIT (Homo sapiens (Human), UniProt O14578); test: Ambit KINOSCAN assay; format: binding; conditions: read-out: percent control (%) at 1 uM
Description: as §1, §2

[4] = biological target: CLK1 (Homo sapiens (Human), UniProt P49759); test: Ambit KINOSCAN assay; format: binding; conditions: read-out: percent control (%) at 1 uM
Description: as §1, §2

[5] = biological target: CLK2 (Homo sapiens (Human), UniProt P49760); test: Ambit KINOSCAN assay; format: binding; conditions: read-out: percent control (%) at 1 uM
Description: as §1, §2

[6] = biological target: CLK4 (Homo sapiens (Human), UniProt Q9HAZ1); test: Ambit KINOSCAN assay; format: binding; conditions: read-out: percent control (%) at 1 uM
Description: as §1, §2

[7] = biological target: CSNK1A1 (Homo sapiens (Human), UniProt P48729); test: Ambit KINOSCAN assay; format: binding; conditions: read-out: percent control (%) at 1 uM
Description: as §1, §2

[8] = biological target: CSNK1A1L (Homo sapiens (Human), UniProt Q8N752); test: Ambit KINOSCAN assay; format: binding; conditions: read-out: percent control (%) at 1 uM
Description: as §1, §2

[9] = biological target: CSNK1E (Homo sapiens (Human), UniProt P49674); test: Ambit KINOSCAN assay; format: binding
Description: as §1, §2

[10] = biological target: CSNK1G1 (Homo sapiens (Human), UniProt Q9HCP0); test: Ambit KINOSCAN assay; format: binding; conditions: read-out: percent control (%) at 1 uM
Description: as §1, §2

[11] = biological target: CSNK1G2 (Homo sapiens (Human), UniProt P78368); test: Ambit KINOSCAN assay; format: binding; conditions: read-out: percent control (%) at 1 uM
Description: as §1, §2

[12] = biological target: CSNK1G3 (Homo sapiens (Human), UniProt Q9Y6M4); test: Ambit KINOSCAN assay; format: binding
Description: as §1, §2

[13] = biological target: DCAMKL3 (Homo sapiens (Human), UniProt Q9C098); test: Ambit KINOSCAN assay; format: binding; conditions: read-out: percent control (%) at 1 uM
Description: as §1, §2

[14] = biological target: DRAK1 (Homo sapiens (Human), UniProt Q9UEE5); test: Ambit KINOSCAN assay; format: binding; conditions: read-out: percent control (%) at 1 uM
Description: as §1, §2

[15] = biological target: DYRK1A (Homo sapiens (Human), UniProt Q13627); test: Ambit KINOSCAN assay; format: binding; conditions: read-out: percent control (%) at 1 uM
Description: as §1, §2

[16] = biological target: DYRK1B (Homo sapiens (Human), UniProt Q9Y463); test: Ambit KINOSCAN assay; format: binding; conditions: read-out: percent control (%) at 1 uM
Description: as §1, §2

[17] = biological target: DYRK2 (Homo sapiens (Human), UniProt Q92630); test: Ambit KINOSCAN assay; format: binding; conditions: read-out: percent control (%) at 1 uM
Description: as §1, §2

[18] = biological target: GSK3A (Homo sapiens (Human), UniProt P49840); test: Ambit KINOSCAN assay; format: binding; conditions: read-out: percent control (%) at 1 uM
Description: as §1, §2

[19] = biological target: IRAK1 (Homo sapiens (Human), UniProt P51617); test: Ambit KINOSCAN assay; format: binding
Description: as §1, §2

[20] = biological target: MINK (Homo sapiens (Human), UniProt Q8N4C8); test: Ambit KINOSCAN assay; format: binding; conditions: read-out: percent control (%) at 1 uM
Description: as §1, §2

[21] = biological target: MST2 (Homo sapiens (Human), UniProt Q13188); test: Ambit KINOSCAN assay; format: binding
Description: as §1, §2

[22] = biological target: VRK2 (Homo sapiens (Human), UniProt Q86Y07); test: Ambit KINOSCAN assay; format: binding; conditions: read-out: percent control (%) at 1 uM
Description: as §1, §2

[23] = read-out: percent control (%) at 1 uM

Chain of IRAK1 (P51617 whole entry): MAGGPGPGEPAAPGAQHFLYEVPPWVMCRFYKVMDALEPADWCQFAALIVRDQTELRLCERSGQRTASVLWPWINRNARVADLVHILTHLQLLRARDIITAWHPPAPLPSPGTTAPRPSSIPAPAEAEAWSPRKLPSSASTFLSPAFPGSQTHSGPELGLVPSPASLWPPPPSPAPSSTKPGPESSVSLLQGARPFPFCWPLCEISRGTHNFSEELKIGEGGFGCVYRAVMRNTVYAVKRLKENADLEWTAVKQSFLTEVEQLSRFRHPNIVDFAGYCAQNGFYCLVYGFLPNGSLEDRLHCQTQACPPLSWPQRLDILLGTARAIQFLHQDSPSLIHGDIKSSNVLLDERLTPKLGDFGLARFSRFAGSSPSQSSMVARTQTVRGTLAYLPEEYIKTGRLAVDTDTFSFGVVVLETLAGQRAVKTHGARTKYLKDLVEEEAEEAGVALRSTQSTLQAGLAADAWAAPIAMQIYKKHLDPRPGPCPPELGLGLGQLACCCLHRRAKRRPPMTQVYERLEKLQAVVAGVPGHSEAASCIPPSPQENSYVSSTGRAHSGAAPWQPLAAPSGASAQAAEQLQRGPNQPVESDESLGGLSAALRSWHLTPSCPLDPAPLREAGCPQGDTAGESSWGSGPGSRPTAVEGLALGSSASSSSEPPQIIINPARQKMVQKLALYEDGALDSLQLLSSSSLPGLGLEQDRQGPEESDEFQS
Chain of CSNK1E (P49674 whole entry): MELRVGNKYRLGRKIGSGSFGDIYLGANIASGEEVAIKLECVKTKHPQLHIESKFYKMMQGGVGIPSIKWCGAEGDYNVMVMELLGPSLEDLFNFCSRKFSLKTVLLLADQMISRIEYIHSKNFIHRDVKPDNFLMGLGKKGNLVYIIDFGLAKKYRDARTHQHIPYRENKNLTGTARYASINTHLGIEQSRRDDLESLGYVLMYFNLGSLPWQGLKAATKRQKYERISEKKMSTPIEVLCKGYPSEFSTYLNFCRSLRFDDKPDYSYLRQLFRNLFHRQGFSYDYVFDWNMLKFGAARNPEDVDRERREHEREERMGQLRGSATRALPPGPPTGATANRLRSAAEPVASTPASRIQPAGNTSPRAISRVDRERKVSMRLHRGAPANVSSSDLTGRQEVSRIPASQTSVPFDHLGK
Chain of CSNK1G3 (Q9Y6M4 whole entry): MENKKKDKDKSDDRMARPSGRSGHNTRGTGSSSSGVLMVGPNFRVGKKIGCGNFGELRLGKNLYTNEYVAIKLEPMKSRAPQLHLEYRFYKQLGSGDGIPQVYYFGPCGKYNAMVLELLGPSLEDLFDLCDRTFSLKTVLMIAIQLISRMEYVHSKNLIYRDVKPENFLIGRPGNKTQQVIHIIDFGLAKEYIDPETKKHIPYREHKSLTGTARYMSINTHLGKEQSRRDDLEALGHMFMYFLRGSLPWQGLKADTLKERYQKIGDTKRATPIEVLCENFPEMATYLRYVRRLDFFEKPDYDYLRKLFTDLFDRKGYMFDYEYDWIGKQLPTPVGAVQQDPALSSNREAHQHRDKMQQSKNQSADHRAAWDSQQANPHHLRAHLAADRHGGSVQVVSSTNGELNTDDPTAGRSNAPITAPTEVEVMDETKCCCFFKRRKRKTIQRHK
Chain of MST2 (Q13188 whole entry): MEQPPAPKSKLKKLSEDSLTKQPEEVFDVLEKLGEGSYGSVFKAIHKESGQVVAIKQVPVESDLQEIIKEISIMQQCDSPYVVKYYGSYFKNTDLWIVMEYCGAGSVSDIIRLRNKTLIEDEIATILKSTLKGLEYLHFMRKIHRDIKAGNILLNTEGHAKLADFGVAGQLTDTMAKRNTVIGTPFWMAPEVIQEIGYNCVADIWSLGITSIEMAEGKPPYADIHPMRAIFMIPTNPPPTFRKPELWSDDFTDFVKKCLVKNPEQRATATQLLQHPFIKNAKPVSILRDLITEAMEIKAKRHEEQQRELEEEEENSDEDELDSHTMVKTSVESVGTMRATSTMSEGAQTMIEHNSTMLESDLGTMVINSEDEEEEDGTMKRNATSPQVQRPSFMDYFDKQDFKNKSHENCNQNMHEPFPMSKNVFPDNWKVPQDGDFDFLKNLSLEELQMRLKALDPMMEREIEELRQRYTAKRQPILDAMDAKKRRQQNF
Chain of CSNK1A1L (Q8N752 whole entry): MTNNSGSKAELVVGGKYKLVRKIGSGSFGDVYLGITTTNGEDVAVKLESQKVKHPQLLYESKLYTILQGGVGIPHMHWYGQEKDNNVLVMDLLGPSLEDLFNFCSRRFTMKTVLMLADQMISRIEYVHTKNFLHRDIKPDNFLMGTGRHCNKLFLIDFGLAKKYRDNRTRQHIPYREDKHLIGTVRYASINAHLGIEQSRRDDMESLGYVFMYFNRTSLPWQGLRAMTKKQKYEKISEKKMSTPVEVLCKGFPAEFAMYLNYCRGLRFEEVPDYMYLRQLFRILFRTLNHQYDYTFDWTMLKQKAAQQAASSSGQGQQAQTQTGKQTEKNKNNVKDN
Chain of CIT (O14578 whole entry): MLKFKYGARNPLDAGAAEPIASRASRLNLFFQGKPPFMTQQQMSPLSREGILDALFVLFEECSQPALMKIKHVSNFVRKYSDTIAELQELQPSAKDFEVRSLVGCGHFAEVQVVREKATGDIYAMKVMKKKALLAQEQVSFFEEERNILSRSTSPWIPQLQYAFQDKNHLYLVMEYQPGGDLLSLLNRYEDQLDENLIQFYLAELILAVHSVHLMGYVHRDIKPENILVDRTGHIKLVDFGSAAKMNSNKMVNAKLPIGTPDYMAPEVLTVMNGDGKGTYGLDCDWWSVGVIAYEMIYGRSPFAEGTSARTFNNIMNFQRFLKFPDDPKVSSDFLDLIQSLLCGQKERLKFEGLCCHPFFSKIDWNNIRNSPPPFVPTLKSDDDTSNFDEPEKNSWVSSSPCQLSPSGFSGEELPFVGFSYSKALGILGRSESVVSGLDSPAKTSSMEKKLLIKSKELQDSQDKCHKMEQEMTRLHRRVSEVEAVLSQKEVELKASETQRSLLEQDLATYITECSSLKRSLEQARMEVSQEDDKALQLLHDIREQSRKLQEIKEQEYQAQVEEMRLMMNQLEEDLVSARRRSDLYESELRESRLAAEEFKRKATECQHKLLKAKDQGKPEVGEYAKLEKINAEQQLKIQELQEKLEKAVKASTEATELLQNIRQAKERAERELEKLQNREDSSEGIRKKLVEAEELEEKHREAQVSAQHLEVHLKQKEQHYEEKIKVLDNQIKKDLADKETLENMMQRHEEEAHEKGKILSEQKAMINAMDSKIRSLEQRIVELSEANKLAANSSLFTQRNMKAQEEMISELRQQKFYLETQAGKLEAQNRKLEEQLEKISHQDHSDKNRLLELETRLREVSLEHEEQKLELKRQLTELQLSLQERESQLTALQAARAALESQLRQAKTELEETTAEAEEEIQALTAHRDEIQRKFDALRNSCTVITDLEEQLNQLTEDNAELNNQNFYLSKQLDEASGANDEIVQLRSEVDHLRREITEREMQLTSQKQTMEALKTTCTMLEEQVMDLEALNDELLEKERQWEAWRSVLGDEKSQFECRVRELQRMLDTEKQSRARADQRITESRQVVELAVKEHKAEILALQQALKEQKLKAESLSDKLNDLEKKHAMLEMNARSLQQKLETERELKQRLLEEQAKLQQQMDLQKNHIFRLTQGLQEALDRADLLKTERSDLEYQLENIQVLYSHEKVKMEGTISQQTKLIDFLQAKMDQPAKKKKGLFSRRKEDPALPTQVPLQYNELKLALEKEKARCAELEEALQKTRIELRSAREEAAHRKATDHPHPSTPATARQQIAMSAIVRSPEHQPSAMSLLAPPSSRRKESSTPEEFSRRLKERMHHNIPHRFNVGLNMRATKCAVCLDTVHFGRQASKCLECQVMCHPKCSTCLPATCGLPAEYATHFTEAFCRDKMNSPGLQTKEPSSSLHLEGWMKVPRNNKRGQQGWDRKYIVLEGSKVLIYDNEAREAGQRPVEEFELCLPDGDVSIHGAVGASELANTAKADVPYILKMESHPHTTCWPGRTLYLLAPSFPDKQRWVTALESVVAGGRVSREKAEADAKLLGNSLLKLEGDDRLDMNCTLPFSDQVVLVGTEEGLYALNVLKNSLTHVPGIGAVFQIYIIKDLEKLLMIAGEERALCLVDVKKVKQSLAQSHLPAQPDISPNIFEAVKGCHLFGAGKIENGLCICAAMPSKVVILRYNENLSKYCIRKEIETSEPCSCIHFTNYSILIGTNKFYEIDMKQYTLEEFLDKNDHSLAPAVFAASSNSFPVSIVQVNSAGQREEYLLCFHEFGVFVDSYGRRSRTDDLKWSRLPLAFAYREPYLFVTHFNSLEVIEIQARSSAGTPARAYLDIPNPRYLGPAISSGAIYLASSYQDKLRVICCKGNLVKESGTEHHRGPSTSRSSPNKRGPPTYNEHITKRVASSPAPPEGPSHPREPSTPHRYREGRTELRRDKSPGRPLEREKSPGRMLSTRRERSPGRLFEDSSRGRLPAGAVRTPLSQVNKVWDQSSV
Chain of DRAK1 (Q9UEE5 whole entry): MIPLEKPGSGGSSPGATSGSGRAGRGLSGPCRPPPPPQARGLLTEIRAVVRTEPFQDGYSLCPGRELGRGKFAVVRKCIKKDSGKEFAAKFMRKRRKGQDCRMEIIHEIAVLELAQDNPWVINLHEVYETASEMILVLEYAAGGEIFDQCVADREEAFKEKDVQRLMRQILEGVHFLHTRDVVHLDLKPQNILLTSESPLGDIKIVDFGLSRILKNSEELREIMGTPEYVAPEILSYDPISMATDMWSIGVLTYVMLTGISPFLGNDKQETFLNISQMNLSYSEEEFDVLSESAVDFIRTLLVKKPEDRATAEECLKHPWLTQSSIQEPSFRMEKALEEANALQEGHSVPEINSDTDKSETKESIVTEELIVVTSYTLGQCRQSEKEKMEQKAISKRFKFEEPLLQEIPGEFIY

pIC50 [1]: < 6.05 | remaining binding at 1 µM [2]: 0.75% | remaining binding at 1 µM [3]: 0.05% | remaining binding at 1 µM [4]: 1.6% | remaining binding at 1 µM [5]: 5% | remaining binding at 1 µM [6]: 2.6% | remaining binding at 1 µM [7]: 3.7% | remaining binding at 1 µM [8]: 1.7% | pIC50 ([9]; Kinase Selectivity Data, CSNK1E): 6.70 | remaining binding at 1 µM [9, 23]: 0.1% | remaining binding at 1 µM [10]: 4.6% | remaining binding at 1 µM [11]: 4% | pIC50 ([12]; Kinase Selectivity Data, CSNK1G3): 8.33 | remaining binding at 1 µM [12, 23]: 0% | remaining binding at 1 µM [13]: 2.5% | remaining binding at 1 µM [14]: 0.15% | remaining binding at 1 µM [15]: 0% | remaining binding at 1 µM [16]: 0.75% | remaining binding at 1 µM [17]: 3% | remaining binding at 1 µM [18]: 0% | pIC50 ([19]; Kinase Selectivity Data, IRAK1): 6.96 | remaining binding at 1 µM [19, 23]: 2.8% | remaining binding at 1 µM [20]: 3.8% | pIC50 ([21]; Kinase Selectivity Data, MST2): 7.37 | remaining binding at 1 µM [21, 23]: 1.2% | remaining binding at 1 µM [22]: 2.4%
SMILES: Nc1ncc(-c2cc([N+](=O)[O-])ccc2F)cc1-c1ccc2c(c1)CCNC2=O [Compound I-1, 6-(2-amino-5-(2-fluoro-5-nitrophenyl)pyridin-3-yl)-3,4-dihydroisoquinolin-1(2H)-one]
